The values below come from patent US20190183939A1, “CELL THERAPY USING MIDBRAIN-TYPE NEURAL STEM CELLS TREATED WITH VITAMIN C” (INDUSTRY-UNIVERSITY COOPERATION FOUNDATION HANYANG …, priority 2017, published 2019).

For one experiment, the system named is VM-NSCs. Put plainly: Cell growth curves and population doubling level during NSC expansion. Format: cell-based, rat. The settings on record: up to P1. How it is done:
(§1) The cell growth profile during NSC expansion with several cell passages was generated by counting the number of viable cells at the end of each passage. Cell expansion of each NSC passage was further estimated by the population doubling level (PDL, the level at which the number of cells is doubled), which was determined by log(N/NO)/log 2 (where N is the number of cells at the end of each passage; NO is the number of cells plated initially (1×10^5 cells/cm^2)). DA neuronal cell survival in the absence or presence of toxic insults (500-1000 uM of H2O2 or 6-OHDA) was determined by counting viable TH^+ cells after staining. General cell death and DNA damage were estimated by ethidium heterodimer 1 (EthD1) (Molecular Probes) and γH2AX staining, respectively.

Experiment [1] has as its system TH+ DA neurons differentiated from VM-NSCs. Put plainly: Co-expression of midbrain-specific markers in differentiated TH+ DA neurons. Format: cell-based, rat. The settings on record: P1 cultures treated with VC during expansion, D6. How it is done: Cultured cells and cryosectioned brain slices were fixed with 4% paraformaldehyde (PFA), and blocked for 40 minutes in blocking solution (Blocking solution: 1% BSA+0.3% Triton X-100). For 5hmC and 5mC staining, the fixed cells were incubated with 2 N HCl for 20 minutes before the blocking reaction. The samples were incubated overnight at 4° C. in the blocking solution containing the primary antibodies listed in Supplemental Table 1. Secondary antibodies tagged with Alexa 488 (1:200, Invitrogen, Carlsbad, Calif.) and Cy3 (1:200, Jackson Immunoresearch Laboratories, West Grove, Pa.) were applied. Stained samples were mounted in Vectashield medium containing 40,6-diamidino-2-phenylindole (DAPI; Vector Laboratories, West Grove, Pa.) and analysed under an epifluorescence (Leica, Wetzlar, Germany) or confocal microscope (Leica TSP SP5).
Immunostained cells were counted in 10-20 random areas of each culture coverslip using an eyepiece grid at a magnification of 200×. Data are expressed as the mean±SEM of three to eight independent cultures. For every figure, statistical tests are justified as appropriate. Statistical comparisons were made using Student's t-test (unpaired) or one-way ANOVA followed by Tukey's post hoc analysis using SPSS® Statistics 21; IBM Inc. The relevant n, P-values, and statistical analysis methods are indicated in each figure legend.

For experiment [2], the system named is cultures differentiated from VM-NSCs. Kind of experiment: Differentiated cell survival/death, DNA damage and resistance against toxins. It is filed as cell-based, rat. How it is done:
as §1

Another experiment relates to TET. Put plainly: Tet enzyme activity in nuclear fraction. Format: biochemical, rat. The settings on record: VC 200 μM, 4 days of proliferation, D0. How it is done: (§2) TET and JMJD3 activities were measured using Epigenase™ 5mC hydroxylase TET Activity/Inhibition Assay Kit and Epigenase™ JMJD3/UTX Demethylase Activity/Inhibition Assay Kit (Epigentek, Farmingdale, N.Y.), respectively. Briefly, cells from two 10 cm-dishes were harvested after 4 days of proliferation with or without VC (200 μM) treatment. Nuclear fractions were obtained from the cells using the EpiQuik nuclear extraction kit (Epigentek), and subjected to enzyme activity analyses.

The next experiment deals with JMJD3. Put plainly: Jmjd3 enzyme activity in nuclear fraction. Format: biochemical, rat. Particulars: VC 200 μM, 4 days of proliferation. The method, then:
as §2

The test system of experiment [3] is human NSCs derived from hESCs (H9). Put plainly: VC treatment in human NSC cultures derived from hESCs (H9). It is filed as cell-based. How it is done: NSCs were cultured from rat embryo VMs (Sprague Dawley) at embryonic day 12 (E12) on 6-cm dishes or 24-well plates pre-coated with 15 μg/ml poly-L-ornithine (PLO; Sigma)/1 ug/ml fibronectin (FN; Sigma, St. Louis, Mo.) in serum-free N2 medium. NSCs were induced to proliferate by the mitogenic action of basic fibroblast growth factor (bFGF, 20 ng/ml, R&D Systems, Minneapolis, Minn.). The proliferating VM-NSCs cultured in 6-cm dishes were passaged at every 4th day in mitogen-supplemented medium with or without Vitamin C (VC; Sigma; 200 μM), glutathione reduced form (GSH; Sigma; 200 μM), vitamin E (alpha-tocopherol; Sigma; 200 μM), or N-acetylcysteine (NAc; Sigma; 100 μM). The expanded NSCs at the last day of each passage were induced to differentiate by withdrawing the mitogen and antioxidants from the media (for 2-16 days). Human NSC cultures were derived by in vitro differentiation of hESCs (H9) and cultured as described in the following reference. [Rhee, Y. H., Ko, J. Y., Chang, M. Y., Yi, S. H., Kim, D., Kim, C. […] The human NSCs were expanded in ITS media supplemented with bFGF (20 ng/ml) in the presence or absence of VC for two NSC passages. Differentiation of the passaged human NSCs was induced by withdrawal of bFGF and VC in ITS supplemented with brain-derived neurotrophic factor (20 ng/ml; R&D Systems), glial cell line derived neurotrophic factor (20 ng/ml; R&D Systems), and dibutyryl cAMP (0.5 mmol/1; Sigma). Cultures were maintained at 37° C. in humidified 5% CO2 incubators.
as §1
To estimate morphological maturation, total fiber lengths emanating from TH+DA neuronal cells were measured. The pre-synaptic activity of DA neurons was determined by measuring the levels of DA neurotransmitter released in the differentiated VM-NSC cultures. Media incubated for 2 days (differentiation day 13-15) were collected and used in the DA level determinations using an ELISA kit (BA E-5300, LDN). […] The evoked DA release was calculated by subtracting the DA release without KCl from the DA level with KCl.

As to `O=C1O[C@H]([C@@H](O)CO)C(O)=C1O` [VC, L-ascorbic acid], in the experiment on VM-NSCs, the “VM-NSC survival and proliferation” value is “none of the anti-oxidant treatments tested, including VC, significantly altered”. In experiment [1], the “TH+ DA neurons expressing Foxa2” value was 98%, the “TH+ DA neurons expressing Lmx1a” value stood at 91% and the “TH+ DA neurons expressing Nurr1” value is reported as 93%. The “DA neurons died after exposure to H2O2 or 6-OHDA” value in experiment [2] (500 and 1000 μM for 8 hours at D8, VC during expansion) is recorded as “remarkably lower proportions”. Moreover, the “γH2AX foci, % cells with >3 foci” value in experiment [2] (D12 as printed, VC during expansion) came to 24.3%. Moreover, the “cell death (EthD-1+ dead cell counting)” value in experiment [2] (differentiation D8, VC during NSC expansion and passaging) is reported as “considerably reduced”. In the experiment on TET, the “Tet enzyme activity in nuclear fractions” value is recorded as “greatly enhanced”. Also, the “Jmjd enzyme activity in nuclear fractions” value in the experiment with JMJD3 is reported as “increase”. Moreover, the “TH+ DA neuronal yields” value in experiment [3] (VC-treated human NSCs, D6) is “significantly enhanced”. In addition, in experiment [3] (compared to untreated control cultures, D15), the “neurite branching of TH+ cells” value is reported as “more extensive neurite branching”. Also, the differentiating/differentiated cell survival entry in experiment [3] (hESC-NSC cultures, VC during proliferation, D6) is listed as “greatly promoted”. Besides, the “TH mRNA expression” value in experiment [3] (qRT-PCR) is recorded as “increase”.
